Assay results as given in PMC7751060 (Antiviral therapy, 2012).
Where two headings read alike, the source gives them in different places.

How the values were obtained:
[1] = test system: HCV; conditions: cited from earlier work
[2] = test system: bovine viral diarrhoea virus (BVDV); conditions: cited from earlier work
[3] = Cytotoxicity assays; assay type: cell-based; conditions: mouse, RAW 264.7 cells
[4] = test system: MNV (MNV-1.CW3); test: MNV assay: MNV infectivity by TCID50 in RAW 264.7 cells; assay type: cell-based, murine norovirus; conditions: for Effect on MNV titre (infectivity), in words: RAW 264.7 cells, TCID50
[5] = test system: MNV (MNV-1.CW3); test: MNV assay: MNV RNA levels by RT-qPCR in RAW 264.7 cells; assay type: cell-based, murine norovirus; conditions: for EC50 / EC90: Norwalk virus; for EC50: RAW264.7, read-out: EC50, concentration required to reduce MNV RNA copy number by 50%; for SI (CC50/EC50), MNV / Antiviral activity against MNV (RNA levels), in words: RAW 264.7 cells; for Antiviral activity against MNV (RNA levels), in words: 0.1-100 μM (RBV 10-200 μM)
[6] = Cytotoxicity assays; assay type: cell-based; conditions: human, HG23 and Huh-7 cells
[7] = test system: NV replicon (HG23 cells); test: Norwalk virus replicon assay: NV RNA by RT-qPCR in HG23 cells; assay type: cell-based; conditions: for Effect on NV RNA levels in HG23 cells, in words: 24-96 h post-treatment; for SI / therapeutic index (CC50/EC50), NV replicon: HG23 cells; for EC90: HG23, read-out: EC90, concentration required to reduce NV RNA copy number in HG23 cells by 90%; for Reduction in NV RNA: 10 μM
[8] = test system: HCV infections; conditions: reportedly; Phase II, treatment of HCV; cited from earlier work
[9] = test system: NPT II expression in HG23 cells; test: Western blot of NPT II expression in HG23 cells; assay type: cell-based, Norwalk virus; conditions: for NPT II expression, % of untreated cells: 72 h incubation; for IC50: Norwalk virus, HG23, read-out: IC50, concentration required to reduce NPT II expression in HG23 cells by 50%
[10] = cited from earlier work
[11] = RAW264.7, read-out: EC90, concentration required to reduce MNV RNA copy number by 90%
[12] = Norwalk virus, HG23, read-out: EC50, concentration required to reduce NV RNA copy number in HG23 cells by 50%, RT-qPCR
[13] = read-out: EC50, concentration required to reduce NV RNA copy number in HG23 cells by 50%, RT-qPCR

| Compound | CC50 at 5 days [3] | Effect on MNV titre (infectivity), in words [4] | EC50 [5] | EC90 [5, 11] | SI (CC50/EC50), MNV [5] | Antiviral activity against MNV (RNA levels), in words [5] | CC50 at 5 days [6] | Effect on NV RNA levels in HG23 cells, in words [7] | SI / therapeutic index (CC50/EC50), NV replicon [7] | EC50 [7, 12] | EC90 ([7]; Norwalk virus) | further results |
| --- | --- | --- | --- | --- | --- | --- | --- | --- | --- | --- | --- | --- |
| C[C@@]1(F)[C@H](O)[C@@H](CO)O[C@H]1n1ccc(N)nc1=O [2′-F-2′-C-MeC, 4-amino-1-((2R, 3R, 4R, 5R)-3-fluoro-4-hydroxy-5-(hydroxymethyl)-3-methyltetrahydrofuran-2-yl) pyrimidin-2(1H)-one] | > 100 µM | reduced MNV titres, but only at 12 h post-treatment | 12.7 ± 2.9 µM | 91.2 ± 2.8 µM | >7.9 | dose-dependent antiviral activity only at 12 h post-treatment | > 100 µM | dose- and time-dependent reduction of NV RNA levels | > 31.4 | 3.2 ± 1.5 µM | 49 ± 2.9 µM | Activity against HCV replication, in words [1]: inhibits HCV; Activity against BVDV replication, in words [2]: not BVDV replication; IC50 ([4]; Norwalk virus, RAW264.7, 12 h, read-out: IC50, MNV infectivity): 33.9 ± 1.1 µM |
| Nc1ccn([C@@H]2CS[C@H](CO)O2)c(=O)n1 [3TC, 4-amino-1-((2R, 5S)-2-(hydroxymethyl)-1,3-oxathiolan-5-yl) pyrimidin-2(1H)-one, reference compound] | > 100 µM | No reduction of MNV titre was observed |  |  |  | Neither 3TC nor NHC had antiviral activity against MNV | > 100 µM | did not show antiviral activity |  |  |  |  |
| NC(=O)c1ncn([C@@H]2O[C@H](CO)[C@@H](O)[C@H]2O)n1 [RBV, ribavirin, reference compound] | > 100 µM |  | 63.5 ± 2.3 µM | 105 ± 1.5 µM | >1.6 | reduced MNV RNA levels in a dose-dependent manner at 12 h and 24 h post-treatment | > 200 µM |  | >5.0 | 40 ± 2.3 µM | 96.3 ± 2.5 µM |  |
| CC(C)C(=O)OC[C@H]1O[C@@H](n2ccc(N)nc2=O)[C@](C)(F)[C@@H]1OC(=O)C(C)C [RG-7128] |  |  |  |  |  |  |  |  |  |  |  | Clinical outcome in HCV trials, in words [8]: demonstrated safety and efficacy against HCV |
| C[C@@]1(O)[C@H](O)[C@@H](CO)O[C@H]1n1ccc(N)nc1=O [2′-C-MeC, 4-amino-1-((2R, 3R, 4R, 5R)-3,4 dihydroxy-5-(hydroxymethyl)-3-methyltetrahydrofuran-2-yl) pyrimidin-2(1H)-one] | > 100 µM | MNV titres were significantly reduced | 6.9 ± 3.9 µM | 25.4 ± 3.6 µM | >14.6 | dose- and time-dependent reduction of MNV RNA levels | > 100 µM | dose- and time-dependent reduction of NV RNA levels | > 77.5 | 1.3 µM | 8.9 ± 1.5 µM | EC50 ([1]; read-out: EC50 against HCV, range given for HCV and BVDV together): 2 to 7 µM; EC50 ([2]; read-out: EC50 against BVDV, range given for HCV and BVDV together): 2 to 7 µM; NPT II expression, % of untreated cells ([9]; 1 μM): 83%; NPT II expression, % of untreated cells ([9]; 10 μM): 13%; NPT II expression, % of untreated cells ([9]; 100 μM): 2%; IC50 [9]: 2.77 ± 1.4 µM; inhibition at 100 µM ([4]; Norwalk virus, RAW264.7, 24 h, read-out: Inhibition of MNV replication (titre)): 99%; Reduction of MNV RNA levels ([5]; 0.1 μM, 72 h of exposure): 2 log10; Inhibition of MNV replication (RNA) ([5]; 100 μM, 24 h post-treatment): 3 log10; EC90 ([5]; RAW264.7, 24 h, read-out: EC90, MNV RNA (1 log10 reduction) (converted)): 25.6 ± 3.7 µM; Reduction in NV RNA ([7]; 72 h post-treatment): 1.2 log10; Reduction in NV RNA ([7]; 96 h post-treatment): 3.6 log10; Reduction of NV RNA level ([7]; 0.1 and 1 μM, after 96 h): 2.5 log10; EC50 [7, 13]: 1.29 ± 0.8 µM |
| O=c1nc(NO)ccn1[C@@H]1O[C@H](CO)[C@@H](O)[C@H]1O [NHC, 1-((2R, 3R, 4S, 5R)-3,4-dihydroxy-5-(hydroxymethyl)tetrahydrofuran-2-yl)-4-(hydroxyamino) pyrimidin-2(1H)-one] | > 100 µM | No reduction of MNV titre was observed | 8.8 ± 4.2 µM |  | >11.4 | Neither 3TC nor NHC had antiviral activity against MNV | > 100 µM | dose- and time-dependent reduction of NV RNA levels | > 68.0 | 1.5 µM | 16.6 ± 2.1 µM | Mutagenic properties [10]: has mutagenic properties; Activity against HCV, in words [1]: active against HCV, BVDV; Activity against BVDV, in words [2]: active against HCV, BVDV; NPT II expression, % of untreated cells ([9]; 1 μM): 91%; NPT II expression, % of untreated cells ([9]; 10 μM): 40%; NPT II expression, % of untreated cells ([9]; 100 μM): 16%; IC50 [9]: 6 ± 1.7 µM; EC50 [7, 13]: 1.47 ± 1.1 µM |
| CC(C)[C@H](N)C(=O)O[C@@H]1[C@@H](CO)O[C@@H](n2ccc(N)nc2=O)[C@]1(C)O [NM-283] |  |  |  |  |  |  |  |  |  |  |  | Clinical outcome in HCV trials, in words [8]: found to have gastrointestinal problems |
